Experimental findings from patent publication US9115385B2, “Methods and compositions for topoisomerase I modulated tumor suppression” (RG BIOPHARMA, LLC, priority 2006, dated 2015) are described below.

For one data set, the system named is ARF. Nature of the data set: Western analysis of ARF protein levels in treated H358 cells. The format is cell-based, human. The note with it: 72 hours post-siRNA. The source says:
FIG. 5B is a series of graphs showing H358 and PC-3 cell viabilities assayed 5 days post-vector treatment (adenoviral vector, moi 20 pfu/cell, or siRNA), and 4 days post treatment with increasing doses of camptothecin. Viability is expressed as a percent of no-camptothecin control for each vector or siRNA treatment. Results represent average of triplicate wells, with standard deviations indicated. Treatments: Adp14 (ARF full length ▪); Ad1β (ARF N-term ◯); siRNA control (▾); no vector (●); siRNA exon 2 (∇). […] Digital analyses of ARF levels are shown below ARF lanes. (lower panel) H358 cell viability assay following the indicated treatments. Viability was measured 3 days post-start of camptothecin treatment.
Adenoviral vectors were used to achieve ectopic overexpression of full-length ARF (Adp14) or ARF-N-terminal domain (Ad1β), and RNA interference to down-regulate endogenous expression of ARF. As shown by the Western analysis of H358 cells in FIG. 5A, ARF levels increased by some 3-fold, as determined by digital analysis of band intensities, by 48 hours post-treatment with Adp14 (moi, 20 pfu/cell, FIG. 5A, lane 1), relative to Ad1β-treated cells (FIG. 5A, lane 2) or untreated cells (FIG. 5A, lane 4). […]

The subject of a further data set is H358 cells. Nature of the data set: cell viability assay with camptothecin, H358. It is filed as cell-based, human. The note with it: viability 5 days post-start of vector treatment. Here is the method: (§1) Control cells received no pretreatment. […] CK2 activator treatment was for the duration of the assay. Cell viability was scored 3 days post-start of camptothecin treatment.
(§2) Viability assays were performed 24 hours post-vector treatment by exposing cells for 24 hours to increasing doses of camptothecin (a topoisomerase I inhibitor) in triplicate in a 96-well viability assay, and assaying them for viability 5 days post-start of vector treatment (FIG. 5B). For each growth curve, cell viabilities were normalized to the viability of cells treated with vector only (no camptothecin), to enable a direct visualization of the sensitization effect.
(§3) Studies of a large panel of cell lines have shown that cell lines with overexpressed CK2 (FIGS. 11B1-B3 and 11C1-C3) display hyper serine phosphorylation of topo I (FIG. 11D) that correlates with sensitivity to camptothecin (FIG. 11A). […] Triplicate wells were then treated with the indicated doses of camptothecin for 18 hours, and monitored for viability 3 days post-start of treatment. […] Referring to FIGS. 11B1-B3, PKC (B1), cdk1 (B2), and CK2 (B3) levels in cancer cell lines: Cell lysates were prepared from the indicated cancer cell lines and assayed for enzymatic activities, or evaluated by Western analysis for total PKC, cdk1, or CK2 protein levels. […] Numbers below Western blot are digital readings of ser-P band intensities relative to H358.

The target in data set [1] is T1, topoisomerase I (Homo sapiens, UniProt P11387).
T1 construct: endogenous in cells; host or cells: H358 and H23 cells
T1 sequence (P11387 2-765 limits assumed): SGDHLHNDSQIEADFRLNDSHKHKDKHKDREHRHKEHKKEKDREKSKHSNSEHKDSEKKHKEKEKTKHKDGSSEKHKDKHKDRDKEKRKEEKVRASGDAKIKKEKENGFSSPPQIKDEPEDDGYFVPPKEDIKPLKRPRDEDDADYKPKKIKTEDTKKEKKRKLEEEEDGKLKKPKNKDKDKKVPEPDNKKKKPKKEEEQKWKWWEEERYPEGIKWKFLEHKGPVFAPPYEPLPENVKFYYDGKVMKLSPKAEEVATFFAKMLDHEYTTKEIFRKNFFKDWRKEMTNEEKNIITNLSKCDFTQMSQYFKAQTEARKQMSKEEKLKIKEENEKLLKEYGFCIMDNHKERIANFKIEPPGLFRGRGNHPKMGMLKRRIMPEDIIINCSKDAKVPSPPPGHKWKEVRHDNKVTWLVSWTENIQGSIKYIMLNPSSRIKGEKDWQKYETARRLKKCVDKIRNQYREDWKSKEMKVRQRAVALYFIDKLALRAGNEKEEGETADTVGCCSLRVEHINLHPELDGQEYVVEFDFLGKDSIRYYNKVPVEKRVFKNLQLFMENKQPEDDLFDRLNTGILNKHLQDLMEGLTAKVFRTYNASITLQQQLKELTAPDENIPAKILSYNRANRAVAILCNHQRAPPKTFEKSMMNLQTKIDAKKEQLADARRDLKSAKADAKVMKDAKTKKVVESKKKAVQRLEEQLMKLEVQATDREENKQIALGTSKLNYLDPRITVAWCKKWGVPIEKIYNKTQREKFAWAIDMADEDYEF
Kind of data set: topoisomerase I plasmid relaxation assay, agent added to nuclear extracts in vitro. It is filed as biochemical. The note with it: for effect on H358 topoisomerase activity: 3, 9, 27 ng added to 0.06 μg H358 extract; for effect on H23 topoisomerase activity: 3, 9, 27 ng added to 0.6 μg H23 extract. Here is the method: Similar assays were carried out using the amount of each respective nuclear extract that produced a 50% conversion of supercoiled to relaxed form (0.06 and 0.6 μg extract protein per reaction for H358 and H23, respectively), and added increasing amounts of purified thioredoxin-ARF (3, 9, 27 ng).
Topoisomerase I Assays: Assays were carried out using the Topoisomerase I Assay Kit (Topogen, Florida), according to the instructions provided with the kit and using the high salt nuclear extracts prepared as described above. Briefly, 0.125 μg supercoiled plasmid DNA was incubated with 0-1.3 μg of nuclear extract for 30 minutes at 37° C. The reaction was stopped by adding stop loading dye supplied in the kit and electrophoresed on a 1% agarose/TAE (10 mM TRIS-acetate/1 mM EDTA) gel until the dye front had reached the bottom of the gel. The gel was then stained for 20 minutes in 0.5 μg/mL ethidium bromide, destained in deionized water for 30 minutes, and electrophoresed for an additional hour to enhance band visibility. The gel was photographed and band intensities were analyzed digitally using a Kodak digital camera and analysis software. Some assays were carried out with alkaline phosphatase-treated extracts, prepared as described below, or in the presence of ARF or ARF1β thioredoxin fusion proteins (3, 9, 27 ng), prepared as described above (see pull-down assays).

A further data set has as its system H23 cells. Kind of data set: cell viability assay with camptothecin, H23. It is filed as cell-based, human. Here is the method:
as §1, §2
Studies of a large panel of cell lines have shown that cell lines with overexpressed CK2 (FIGS. 11B1-B3 and 11C1-C3) display hyper serine phosphorylation of topo I (FIG. 11D) that correlates with sensitivity to camptothecin (FIG. 11A). […] Cells were plated at 2000 cells per well and allowed to attach. Triplicate wells were then treated with the indicated doses of camptothecin for 18 hours, and monitored for viability 3 days post-start of treatment. Viability is represented as a % of control, untreated, cell viability. Referring to FIGS. 11B1-B3, PKC (B1), cdk1 (B2), and CK2 (B3) levels in cancer cell lines: Cell lysates were prepared from the indicated cancer cell lines and assayed for enzymatic activities, or evaluated by Western analysis for total PKC, cdk1, or CK2 protein levels. Actin levels served as a control (same control for PKC, cdk1, and CK2). Referring to FIGS. 11C1-C3 PKC (C1), cdk1 (C2), and CK2 (C3) levels in normal cell lines, compared to H358 and H23: Cell lysates were prepared from the indicated cell lines and evaluated as before. Numbers below Western blots indicate digital reading of band intensities of PCK, cdk1, or CK2 Western blots, relative to H358. Referring to FIG. 11D, topo-I immunoprecipitation followed by topo-I Western (top row) or phosphoserine Western (bottom row). Numbers below Western blot are digital readings of ser-P band intensities relative to H358.

Another data set has as its system Hela cells. Nature of the data set: cell viability assay with camptothecin, Hela. The note with it: compared with H23 and H358. It is filed as cell-based. The source says:
FIG. 8A is a graph showing the viability of the indicated cell types 3 days after treatment with camptothecin. FIG. 8B is an electrophoretic gel of a topoisomerase I immunoprecipitation followed by an ARF and topoisomerase I Western analysis. FIG. 8C is an electrophoretic gel of a topoisomerase I immunoprecipitation and a phosphoserine Western analysis. FIG. 8D is an ARF Western analysis. […] The sensitivity of Hela cells to topoisomerase I inhibitors is also intermediate to that of […] and H23 cells.
The assay in FIG. 8A was carried out as in FIG. 7D. ARF/topoisomerase I complex formation was examined using the co-immunoprecipitation assay described for FIGS. 3A and 3C. A reduced but detectable level of ARF/topoisomerase I complex formation in Hela cells was observed, compared to H358 cells (FIG. 8B). ARF/topoisomerase I complex formation in H23 cells was undetectable (FIG. 8B), confirming previous experiments (FIG. 1C).

The next data set has as its system HT29 cells. Nature of the data set: cell viability assay with camptothecin, HT29. It is filed as cell-based, human. The note with it: viability 3 days after treatment.
Text: FIG. 7 is a series of graphs showing the correlation of serine phosphorylation, ARF/topoisomerase I complex formation and camptothecin sensitivity. FIGS. 7A-C show the relative amounts of (A) serine phosphorylation of topoisomerase I, (B) total topoisomerase I, and (C) ARF-topoisomerase I complex following topoisomerase I immunoprecipitation in the indicated cell types. FIG. 7D is a graph showing the viability of the indicated cell types 3 days after treatment with camptothecin.
as §3, with “Referring” for “Numbers below Western blot are digital readings of ser-P band intensities relative”, “FIGS. 11C1-C3 PKC (C1), cdk1 (C2), and CK2 (C3) levels in normal cell lines, compared to H358 and H23: Cell lysates were prepared from the indicated cell lines and evaluated as before. […]” for “H358.”

For data set [2], the target named is T1, topoisomerase I. Nature of the data set: phosphoserine Western of topoisomerase I after in vitro enzyme treatment. The format is biochemical. The text has this: (§4) The dephosphorylated topoisomerase I from H358 cells could no longer be activated by addition of increasing amounts of ARF fusion protein (FIG. 3B, lanes 7-9).
In data set [3] the test system is ARF/topoisomerase I complex. Nature of the data set: ARF binding / co-immunoprecipitation of topoisomerase I after in vitro enzyme treatment. Also noted: species or system human.
Text: as §4

The mark [4] stands for this setting: purified recombinant human topoisomerase I.

Consider “siRNA to exon 1β: siRNA to the exon 1β region of ARF (SEQ ID NO: 4 and 5) (chain 1 GGGUUUUCGUGGUUCACAUTT; chain 2 AUGUGAACCACGAAAACCCTC; chemistry not given here)”, for which, in the data set on ARF, the “ARF protein level relative to untreated cells” value was “about 0.25”. For the same molecule, the “sensitivity to camptothecin after exon 1β siRNA with or without Adp14” value in the data set with H358 cells was “decreased sensitivity to camptothecin”.

Take “Thioredoxin-ARF: purified recombinant human ARF-thioredoxin fusion protein, full length”: in the data set with topoisomerase I [1], the “effect on H358 topoisomerase activity” value is on record as “enhanced the activity of H358 topoisomerase in a dose-dependent manner” and the “effect on H23 topoisomerase activity” value was “no effect”.

In the case of `CC[C@@]1(O)C(=O)OCc2c1cc1n(c2=O)Cc2cc3ccccc3nc2-1` [camptothecin], in the data set on H23 cells, the response to camptothecin result is “greatly reduced response”. Also, the “sensitivity to camptothecin compared with H358 and PC-3” value with H23 cells (viability 3 days after treatment) and with HT29 cells was “more resistant” in each case. For the same molecule, the sensitivity to camptothecin entry in the data set with Hela cells was “intermediate to that of H23 and H358”.

With alkaline phosphatase, on topoisomerase I [2] (H358 and H23 nuclear extracts), the “topoisomerase I serine phosphorylation” value is “eliminated serine phosphorylation”. The “serine phosphorylation of purified recombinant human topoisomerase I” value at topoisomerase I [2] (setting [4]) was “abolished serine phosphorylation”. The “co-immunoprecipitation of topoisomerase I with ARF / complex formation” value in data set [3] (nuclear extracts) is recorded as “failed to co-immunoprecipitate”. The “binding of recombinant ARF fusion protein by purified recombinant human topoisomerase I” value in data set [3] (setting [4]) is “abolished its ability to bind recombinant ARF fusion protein”. In addition, at topoisomerase I [1] (H358 and H23 nuclear extracts treated with the enzyme), the “topoisomerase I activity in vitro” value was “abolished their topoisomerase I activity”.

B1: thioredoxin ARF-N-terminus: thioredoxin fusion of the N-terminal 64 amino acid residues of ARF, does not bind topoisomerase I (protein, UniProt Q8N726 1-64, looked up, fragment)
chain: MVRRFLVTLRIRRACGPPRVRVFVVHIPRLTGEWAAPGAPAAVALVLMLLRSQRLGQQPLPRRP
modifications: thioredoxin fusion
Take B1: in the data set with topoisomerase I [1], the “effect on H358 topoisomerase activity” value is recorded as “Neither H358 not H23 topoisomerase activities responded” and the “effect on H23 topoisomerase activity” value was “Neither H358 not H23 topoisomerase activities responded”.
